According to PMC4138103 (PLoS ONE, 2014):
Read-outs that look alike come from different tables or passages of the source.

Experiments:
human TTR = biological target: T1, human TTR (Homo sapiens, UniProt P02766); details: ref Hamers et al. 2011, cited from earlier work
T1 construct: purchased Sigma Aldrich

Sprague-Dawley rats [1] = assay: Liver p53 and DNA damage markers, Western blotting; format: in vivo, Rattus norvegicus; details: for Emax: Rattus norvegicus
Description: Liver p53, Mdm2 and DNA damage related markers were assessed by Western blotting analysis. Proteins of the liver homogenates were quantified using Coomassie Plus Protein Assay Reagent (Pierce, Täby, Sweden). The samples were subjected to SDS-PAGE, the separated proteins were transferred to a polyvinylidene difluoride membrane (Bio-Rad, Hercules, CA, USA) and blocked in 10% non-fatty milk for 1 h. The protein bands were subsequently probed with antibodies overnight at 4°C.
The primary antibody for total p53 DO-1 was purchased from Novocastra (Newcastle, UK). Primary antibodies for DNA-damage marker were phospho-p53 (Ser-15), phospho-Chk2 (Thr-68), phospho-Mdm2 (Ser-166), phospho-Akt (Ser-473) (Cell Signaling Technology, Stockholm, Sweden) phospho-Erk (Tyr-204) (E-4) and the loading control Cdk2 (M2) (sc-7383 resp. sc-163, Santa Cruz Biotechnology, Santa Cruz, CA, USA). Secondary antibodies used were goat anti-rabbit IgG, goat anti-mouse IgG (sc-2004 resp. sc-2005, Santa Cruz Biotechnology). No signals were obtained when primary antibodies were omitted. […]. The results were visualized by the ECL or ECL plus detection kits (Amersham GE Healthcare Bio-sciences AB, Uppsala, Sweden). Cdk2 was used as a loading control.
Data were also analyzed using the BMD method, which is based on dose-response modeling of the full data set using a nested family of exponential and Hill models. The analyses were done on data of males and females combined, using sex as a covariate. […] In that case, different Critical Effect Doses (CEDs) and CEDs at the lowest bound of the confidence interval (CED-L) were generated for each sex. If no difference between sexes is detected, a CED and CED-Ls for the combined data is generated. However, this was also done if the curve fits are close, and separate analyses for males and females were then performed manually. […]

Sprague-Dawley rats [2] = assay: In-life observations, 28-day repeated dose oral toxicity study; format: in vivo, Rattus norvegicus
Text: The experimental protocol followed the OECD 407 Guideline on Repeated dose 28-day oral toxicity study in rodents, which was enhanced for detection of endocrine, neurotoxicity, retinoid, bone and DNA damage endpoints. In order to improve the assessment of dose-response relationships the number of rats per gender per dose group was reduced to 5 and the amount of dose groups was increased to 8. To rapidly achieve the kinetic steady state, the total dose was divided into 6 daily loading doses and 3 weekly maintenance doses, which were calculated according to the formula [21]. [drawing 1] where [drawing 2] = loading dose
Loading doses were administered on days 0–5 and maintenance doses on days 10, 17 and 24 of the study. Selection of the highest dose was based on a pilot study.
Food and water consumption per cage was recorded once weekly. For determination of the stage of the estrous cycle vaginal smears were collected from female rats daily starting from day 23 of the study. This was done to ensure that the females were at the diestrous stage during necropsy.

Liver enzymes = test system: Liver enzymes; parameters: method as in Roos et al., 2011; details: 2011, cited from earlier work; for CED, CYP3A1 mRNA / CED-L, CYP3A1 mRNA: model E4; for CED, CYP3A1 mRNA / CED-L, CYP3A1 mRNA / CED, CYP2B1 mRNA / CED-L, CYP2B1 mRNA: adipose tissue concentration based, enzyme induction data ref Roos et al.; for CED, CYP2B1 mRNA / CED-L, CYP2B1 mRNA: model E5; for CYP2B1 mRNA, CED / CYP2B1 mRNA, CED-L / CYP3A1 mRNA, CED / CYP3A1 mRNA, CED-L: total dose based, ref Roos et al.
[3] = F, CES 5%, model E4, adipose tissue concentration based
[4] = F, CES 5%, model E5, adipose tissue concentration based
[5] = F, CES 100%, model E4, adipose tissue concentration based
[6] = F, CES 100%, model E5, adipose tissue concentration based
[7] = females, CES 5%, total dose based
[8] = females, CES 100%, adipose tissue concentration based
[9] = females, CES 100%, total dose based
[10] = females, adipose tissue concentration based

Clc1cc(Cl)c(-c2cc(Cl)c(Cl)c(Cl)c2Cl)cc1Cl [PCB 180, 2,2′,3′,4,4′,5,5′-heptachlorobiphenyl]
T4 displacement, Pilot experiment (human TTR; @10000 nM): 27% T4 displacement @10000 nM | IC50 (human TTR; TTR binding): > 15 µM | CED, Liver p53 (Sprague-Dawley rats [1]; [3]): 65.2 µg/g lipid | CED-L, Liver p53 (Sprague-Dawley rats [1]; [3]): 30.0 µg/g lipid | CED, Liver p53 Ser15 (Sprague-Dawley rats [1]; [4]): 361 µg/g lipid | CED, Liver pChk2 Thr68 (Sprague-Dawley rats [1]; [4]): 337 µg/g lipid | CED-L, Liver p53 Ser15 (Sprague-Dawley rats [1]; [4]): 124 µg/g lipid | CED-L, Liver pChk2 Thr68 (Sprague-Dawley rats [1]; [4]): 98.2 µg/g lipid | CED, Liver p53 (Sprague-Dawley rats [1]; [5]): 2240 µg/g lipid | CED-L, Liver p53 (Sprague-Dawley rats [1]; [5]): 1053 µg/g lipid | CED, Liver p53 Ser15 (Sprague-Dawley rats [1]; [6]): 438 µg/g lipid | CED, Liver pChk2 Thr68 (Sprague-Dawley rats [1]; [6]): 382 µg/g lipid | CED-L, Liver p53 Ser15 (Sprague-Dawley rats [1]; [6]): 411 µg/g lipid | CED-L, Liver pChk2 Thr68 (Sprague-Dawley rats [1]; [6]): 165 µg/g lipid | Emax (Sprague-Dawley rats [1]; F, model E4, controls vs high dose according to the fitted model, read-out: Maximum response, Liver p53): 141% | Emax (Sprague-Dawley rats [1]; females, controls vs high dose, fitted model, read-out: Liver p53, Maximum response): 142% | Emax (Sprague-Dawley rats [1]; females, controls vs high dose, fitted model, read-out: Liver p53 Ser15, Maximum response): 181% | Emax (Sprague-Dawley rats [1]; females, controls vs high dose, fitted model, read-out: Liver pChk2 Thr68, Maximum response): 185% | Emax (Sprague-Dawley rats [1]; F, model E5, controls vs high dose according to the fitted model, read-out: Maximum response, Liver p53 Ser15): 181% | Emax (Sprague-Dawley rats [1]; F, model E5, controls vs high dose according to the fitted model, read-out: Maximum response, Liver pChk2 Thr68): 185% | Liver p53, CED (Sprague-Dawley rats [1]; [7]): 14.1 mg/kg bw | Liver p53, CED-L (Sprague-Dawley rats [1]; [7]): 5.89 mg/kg bw | Liver p53 Ser15, CED (Sprague-Dawley rats [1]; [7]): 79.2 mg/kg bw | Liver p53 Ser15, CED-L (Sprague-Dawley rats [1]; [7]): 19.5 mg/kg bw | Liver pChk2 Thr68, CED (Sprague-Dawley rats [1]; [7]): 72.9 mg/kg bw | Liver pChk2 Thr68, CED-L (Sprague-Dawley rats [1]; [7]): 31.5 mg/kg bw | Liver p53 Ser15, CED (100%) (Sprague-Dawley rats [1]; [8]): 438 µg/g lipid | Liver pChk2 Thr68, CED (100%) (Sprague-Dawley rats [1]; [8]): 382 µg/g lipid | Liver p53, CED (Sprague-Dawley rats [1]; [9]): 472 mg/kg bw | Liver p53, CED-L (Sprague-Dawley rats [1]; [9]): 210 mg/kg bw | Liver p53 Ser15, CED (Sprague-Dawley rats [1]; [9]): 101 mg/kg bw | Liver p53 Ser15, CED-L (Sprague-Dawley rats [1]; [9]): 93.0 mg/kg bw | Liver pChk2 Thr68, CED (Sprague-Dawley rats [1]; [9]): 81.1 mg/kg bw | Liver pChk2 Thr68, CED-L (Sprague-Dawley rats [1]; [9]): 41.8 mg/kg bw | Liver p53, CED (Sprague-Dawley rats [1]; [10]): 2240 µg/g lipid | Liver p53, CED-L (Sprague-Dawley rats [1]; [10]): 30000 ng/g lipid | Body weight development (Sprague-Dawley rats [2]; 1700 mg/kg bw, both genders, during loading dosing, recovered completely by end of study): retarded | Feed consumption, maximal temporary reduction (Sprague-Dawley rats [2]; females, three highest doses, during loading dosing): about 20% | Feed consumption, maximal temporary reduction (Sprague-Dawley rats [2]; males, two highest doses, during loading dosing): about 25% | Water consumption (Sprague-Dawley rats [2]; rat, in vivo): unaffected | Mortality (Sprague-Dawley rats [2]; total doses 3-1700 mg/kg bw, both genders): no mortality | CED, CYP3A1 mRNA (Liver enzymes; F, CES 5%): 6.75 µg/g lipid | CED-L, CYP3A1 mRNA (Liver enzymes; F, CES 5%): 3.19 µg/g lipid | CED, CYP2B1 mRNA (Liver enzymes; F, CES 5%): 12.4 µg/g lipid | CED-L, CYP2B1 mRNA (Liver enzymes; F, CES 5%): 5.74 µg/g lipid | CED, CYP3A1 mRNA (Liver enzymes; F, CES 10%): 13.5 µg/g lipid | CED-L, CYP3A1 mRNA (Liver enzymes; F, CES 10%): 6.39 µg/g lipid | CED, CYP2B1 mRNA (Liver enzymes; F, CES 10%): 15.5 µg/g lipid | CED-L, CYP2B1 mRNA (Liver enzymes; F, CES 10%): 7.76 µg/g lipid | CED, CYP3A1 mRNA (Liver enzymes; M, CES 5%): 5.88 µg/g lipid | CED-L, CYP3A1 mRNA (Liver enzymes; M, CES 5%): 3.63 µg/g lipid | CED, CYP2B1 mRNA (Liver enzymes; M, CES 5%): 1.52 µg/g lipid | CED-L, CYP2B1 mRNA (Liver enzymes; M, CES 5%): 0.584 µg/g lipid | CED, CYP3A1 mRNA (Liver enzymes; M, CES 10%): 11.8 µg/g lipid | CED-L, CYP3A1 mRNA (Liver enzymes; M, CES 10%): 7.26 µg/g lipid | CED, CYP2B1 mRNA (Liver enzymes; M, CES 10%): 2.15 µg/g lipid | CED-L, CYP2B1 mRNA (Liver enzymes; M, CES 10%): 0.895 µg/g lipid | CYP2B1 mRNA, CED (Liver enzymes; females, CES 5%): 1.70 mg/kg bw | CYP2B1 mRNA, CED-L (Liver enzymes; females, CES 5%): 0.90 mg/kg bw | CYP3A1 mRNA, CED (Liver enzymes; females, CES 5%): 1.50 mg/kg bw | CYP3A1 mRNA, CED-L (Liver enzymes; females, CES 5%): 0.70 mg/kg bw | CYP2B1 mRNA, CED (Liver enzymes; females, CES 10%): 2.20 mg/kg bw | CYP2B1 mRNA, CED-L (Liver enzymes; females, CES 10%): 1.20 mg/kg bw | CYP3A1 mRNA, CED (Liver enzymes; females, CES 10%): 2.90 mg/kg bw | CYP3A1 mRNA, CED-L (Liver enzymes; females, CES 10%): 1.40 mg/kg bw | CYP2B1 mRNA, CED (Liver enzymes; males, CES 5%): 0.70 mg/kg bw | CYP2B1 mRNA, CED-L (Liver enzymes; males, CES 5%): 0.40 mg/kg bw | CYP3A1 mRNA, CED (Liver enzymes; males, CES 5%): 1.40 mg/kg bw | CYP3A1 mRNA, CED-L (Liver enzymes; males, CES 5%): 0.90 mg/kg bw | CYP2B1 mRNA, CED (Liver enzymes; males, CES 10%): 1.00 mg/kg bw | CYP2B1 mRNA, CED-L (Liver enzymes; males, CES 10%): 0.50 mg/kg bw | CYP3A1 mRNA, CED (Liver enzymes; males, CES 10%): 2.90 mg/kg bw | CYP3A1 mRNA, CED-L (Liver enzymes; males, CES 10%): 1.80 mg/kg bw
